{"source": "patent US20050119253A1", "about": "“Method of treating mental disorders using of D4 and 5-HT2A antagonists, inverse agonists or partial agonists” (priority 2003, published 2005)", "key": {"[1]": {"settings": "metabolite from biotransformation in the liver; cited from earlier work"}, "[2]": {"system": "acute schizophrenia", "settings": "neuroleptic responsive inpatients with acute schizophrenia; cited from earlier work"}, "[3]": {"biological_target": "other Dopamine receptors", "experiment": "pKi towards other Dopamine receptors", "assay_type": "binding", "settings": "D1, D2 and D3", "from_the_text": "‘Other Dopamine receptors’ are, for instance, D1, D2 and D3.\npKi values of test compounds for Dopamine receptors can be measured using commonly known assays."}, "[4]": {"biological_target": "5HT1F (Homo sapiens, UniProt P30939)", "sequence (P30939 whole entry, species assumed)": "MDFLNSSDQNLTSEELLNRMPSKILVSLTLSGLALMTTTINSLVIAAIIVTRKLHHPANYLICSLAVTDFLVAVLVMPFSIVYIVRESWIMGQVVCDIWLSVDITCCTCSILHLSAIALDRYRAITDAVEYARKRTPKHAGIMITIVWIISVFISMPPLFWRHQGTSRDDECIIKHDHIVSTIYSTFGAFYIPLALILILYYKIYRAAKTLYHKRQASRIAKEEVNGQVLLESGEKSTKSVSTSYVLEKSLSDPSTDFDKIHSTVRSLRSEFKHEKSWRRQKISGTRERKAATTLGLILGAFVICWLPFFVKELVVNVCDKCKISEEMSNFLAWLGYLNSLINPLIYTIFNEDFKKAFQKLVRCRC", "experiment": "pKi of test compounds, 5HT1F receptor", "assay_type": "binding"}, "[5]": {"biological_target": "Beta2 (Homo sapiens, UniProt P07550)", "sequence (P07550 whole entry)": "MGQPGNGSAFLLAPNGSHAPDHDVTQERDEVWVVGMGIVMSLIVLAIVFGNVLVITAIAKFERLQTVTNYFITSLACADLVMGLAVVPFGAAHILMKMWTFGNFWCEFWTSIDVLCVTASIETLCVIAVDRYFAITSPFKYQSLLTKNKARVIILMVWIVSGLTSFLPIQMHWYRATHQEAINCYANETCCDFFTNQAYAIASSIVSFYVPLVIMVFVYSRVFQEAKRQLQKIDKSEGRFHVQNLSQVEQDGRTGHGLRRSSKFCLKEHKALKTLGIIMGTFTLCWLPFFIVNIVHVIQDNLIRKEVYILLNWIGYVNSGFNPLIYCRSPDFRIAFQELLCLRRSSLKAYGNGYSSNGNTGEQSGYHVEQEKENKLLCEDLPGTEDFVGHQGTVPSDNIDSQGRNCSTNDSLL", "experiment": "pKi of test compounds, adrenergic receptor Beta2", "assay_type": "binding"}, "[6]": {"biological_target": "T1, Alpha2C (Homo sapiens, UniProt P18825)", "T1 sequence (P18825 1-462)": "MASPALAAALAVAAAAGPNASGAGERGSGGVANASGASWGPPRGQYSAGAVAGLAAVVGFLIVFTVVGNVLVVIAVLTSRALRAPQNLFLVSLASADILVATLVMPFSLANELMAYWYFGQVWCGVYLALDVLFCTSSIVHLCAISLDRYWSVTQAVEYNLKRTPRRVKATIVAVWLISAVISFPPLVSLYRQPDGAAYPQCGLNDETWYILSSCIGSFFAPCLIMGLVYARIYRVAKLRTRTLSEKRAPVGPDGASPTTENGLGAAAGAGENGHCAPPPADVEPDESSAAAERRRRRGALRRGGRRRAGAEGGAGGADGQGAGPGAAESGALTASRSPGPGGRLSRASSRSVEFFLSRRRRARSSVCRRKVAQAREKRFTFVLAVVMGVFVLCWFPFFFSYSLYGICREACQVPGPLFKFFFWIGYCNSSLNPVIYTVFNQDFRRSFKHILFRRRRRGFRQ", "experiment": "pKi of test compounds, adrenergic receptor Alpha2C", "assay_type": "binding"}, "[7]": {"biological_target": "T2, 5HT1A (Homo sapiens, UniProt P08908)", "T2 sequence (P08908 1-422)": "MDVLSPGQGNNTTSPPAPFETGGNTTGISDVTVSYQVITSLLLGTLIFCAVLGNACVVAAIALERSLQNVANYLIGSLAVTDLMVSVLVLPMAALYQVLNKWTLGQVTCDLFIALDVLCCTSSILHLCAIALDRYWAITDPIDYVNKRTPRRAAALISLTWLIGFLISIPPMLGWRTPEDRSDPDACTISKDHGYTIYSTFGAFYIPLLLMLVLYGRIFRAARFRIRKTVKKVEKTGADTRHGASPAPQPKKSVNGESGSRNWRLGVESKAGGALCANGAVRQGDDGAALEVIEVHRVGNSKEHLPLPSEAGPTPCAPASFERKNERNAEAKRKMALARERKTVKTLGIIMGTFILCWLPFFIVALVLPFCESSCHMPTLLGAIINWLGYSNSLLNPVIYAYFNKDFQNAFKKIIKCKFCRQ", "experiment": "pKi of test compounds, 5HT1A receptor", "assay_type": "binding"}, "[8]": {"biological_target": "5HT1E (Homo sapiens, UniProt P28566)", "sequence (P28566 whole entry, species assumed)": "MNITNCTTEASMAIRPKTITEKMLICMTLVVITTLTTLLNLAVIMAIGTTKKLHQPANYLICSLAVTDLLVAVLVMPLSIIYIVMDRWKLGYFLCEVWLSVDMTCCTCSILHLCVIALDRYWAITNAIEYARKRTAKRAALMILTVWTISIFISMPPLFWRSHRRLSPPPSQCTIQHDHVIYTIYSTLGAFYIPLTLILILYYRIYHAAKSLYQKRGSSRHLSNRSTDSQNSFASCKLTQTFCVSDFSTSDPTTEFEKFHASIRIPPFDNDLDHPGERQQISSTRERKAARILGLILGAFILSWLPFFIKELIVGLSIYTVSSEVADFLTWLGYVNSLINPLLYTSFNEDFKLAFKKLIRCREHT", "experiment": "pKi of test compounds, 5HT1E receptor", "assay_type": "binding"}, "[9]": {"biological_target": "T3, D4 receptor (Homo sapiens, UniProt P21917)", "T3 sequence (P21917 1-419)": "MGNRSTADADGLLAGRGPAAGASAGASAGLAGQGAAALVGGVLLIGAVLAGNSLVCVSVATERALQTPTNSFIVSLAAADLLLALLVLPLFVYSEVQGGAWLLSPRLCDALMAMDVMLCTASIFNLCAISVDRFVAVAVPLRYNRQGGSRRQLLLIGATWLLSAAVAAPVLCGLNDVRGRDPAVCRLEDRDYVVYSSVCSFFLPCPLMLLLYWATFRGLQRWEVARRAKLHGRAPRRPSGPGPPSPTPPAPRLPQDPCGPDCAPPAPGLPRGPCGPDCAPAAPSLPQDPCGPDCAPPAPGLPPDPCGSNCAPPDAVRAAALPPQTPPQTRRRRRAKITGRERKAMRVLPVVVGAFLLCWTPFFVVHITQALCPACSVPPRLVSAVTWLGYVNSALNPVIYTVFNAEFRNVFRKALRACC", "experiment": "pKi of test compounds, D4 receptor", "assay_type": "binding", "settings": "D4; read-out: pKi D4 (converted)"}, "[10]": {"biological_target": "D3 (Homo sapiens, UniProt P35462)", "sequence (P35462 whole entry)": "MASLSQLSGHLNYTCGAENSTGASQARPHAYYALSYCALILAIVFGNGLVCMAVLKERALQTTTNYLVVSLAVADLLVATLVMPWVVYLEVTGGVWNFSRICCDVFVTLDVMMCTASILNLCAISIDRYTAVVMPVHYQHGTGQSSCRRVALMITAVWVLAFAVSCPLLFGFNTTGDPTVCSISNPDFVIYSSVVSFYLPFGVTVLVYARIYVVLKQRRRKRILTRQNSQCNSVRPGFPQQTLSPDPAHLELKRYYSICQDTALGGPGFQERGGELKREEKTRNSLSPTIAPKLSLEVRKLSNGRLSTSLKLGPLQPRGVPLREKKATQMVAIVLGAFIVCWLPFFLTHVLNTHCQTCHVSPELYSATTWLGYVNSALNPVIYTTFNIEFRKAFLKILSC", "experiment": "pKi of test compounds, D3 receptor", "assay_type": "binding", "settings": "read-out: pKi D3 (converted)"}, "[11]": {"biological_target": "other 5HT receptors", "experiment": "pKi towards other 5HT receptors", "assay_type": "binding", "settings": "5-HT1A, 1B, 1D, 1E, 1F, 5-HT2B, 5-HT2C, 5-HT6 (rat), 5-HT7 (rat)"}, "[12]": {"biological_target": "Beta1 (Homo sapiens, UniProt P08588)", "sequence (P08588 whole entry)": "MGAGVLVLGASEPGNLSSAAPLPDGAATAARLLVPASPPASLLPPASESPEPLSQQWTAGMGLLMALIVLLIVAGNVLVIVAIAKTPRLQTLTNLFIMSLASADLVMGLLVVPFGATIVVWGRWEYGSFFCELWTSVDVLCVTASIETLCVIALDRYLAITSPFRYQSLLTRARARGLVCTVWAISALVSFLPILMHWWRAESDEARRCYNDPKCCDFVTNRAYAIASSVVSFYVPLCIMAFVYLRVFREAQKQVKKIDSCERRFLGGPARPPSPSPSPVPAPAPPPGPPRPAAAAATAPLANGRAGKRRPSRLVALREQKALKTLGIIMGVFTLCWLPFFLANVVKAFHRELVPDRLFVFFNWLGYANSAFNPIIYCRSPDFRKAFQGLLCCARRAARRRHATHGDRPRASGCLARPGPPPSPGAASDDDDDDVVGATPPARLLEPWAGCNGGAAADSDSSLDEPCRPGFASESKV", "experiment": "pKi of test compounds, adrenergic receptor Beta1", "assay_type": "binding"}, "[13]": {"biological_target": "5HT1D (Homo sapiens, UniProt P28221)", "sequence (P28221 whole entry, species assumed)": "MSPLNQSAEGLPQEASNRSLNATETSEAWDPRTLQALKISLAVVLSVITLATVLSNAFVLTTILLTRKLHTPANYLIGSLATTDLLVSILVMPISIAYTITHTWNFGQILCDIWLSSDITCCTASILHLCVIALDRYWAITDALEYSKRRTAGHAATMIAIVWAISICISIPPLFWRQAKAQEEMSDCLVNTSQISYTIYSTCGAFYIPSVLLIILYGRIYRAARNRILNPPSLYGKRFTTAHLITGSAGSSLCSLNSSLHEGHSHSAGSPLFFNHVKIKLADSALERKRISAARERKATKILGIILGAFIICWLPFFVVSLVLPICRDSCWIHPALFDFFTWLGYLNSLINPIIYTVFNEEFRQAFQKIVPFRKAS", "experiment": "pKi of test compounds, 5HT1D receptor", "assay_type": "binding", "settings": "read-out: pKi 5HT1D (converted)"}, "[14]": {"biological_target": "T4, Alpha2A (Homo sapiens, UniProt P08913)", "T4 sequence (P08913 1-465)": "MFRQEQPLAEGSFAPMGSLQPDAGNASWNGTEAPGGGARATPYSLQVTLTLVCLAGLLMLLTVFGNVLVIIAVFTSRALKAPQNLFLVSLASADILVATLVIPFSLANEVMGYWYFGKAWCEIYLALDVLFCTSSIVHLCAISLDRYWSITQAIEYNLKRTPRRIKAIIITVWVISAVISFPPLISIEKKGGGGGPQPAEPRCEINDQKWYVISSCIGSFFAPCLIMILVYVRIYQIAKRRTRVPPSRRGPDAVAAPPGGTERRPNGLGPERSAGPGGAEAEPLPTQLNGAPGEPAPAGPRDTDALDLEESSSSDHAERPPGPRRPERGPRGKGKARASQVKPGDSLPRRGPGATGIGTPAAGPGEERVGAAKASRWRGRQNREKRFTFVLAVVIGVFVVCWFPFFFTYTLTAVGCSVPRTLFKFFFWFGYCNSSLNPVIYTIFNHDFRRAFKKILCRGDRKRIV", "experiment": "pKi of test compounds, adrenergic receptor Alpha2A", "assay_type": "binding"}, "[15]": {"biological_target": "5HT1B (Homo sapiens, UniProt P28222)", "sequence (P28222 whole entry, species assumed)": "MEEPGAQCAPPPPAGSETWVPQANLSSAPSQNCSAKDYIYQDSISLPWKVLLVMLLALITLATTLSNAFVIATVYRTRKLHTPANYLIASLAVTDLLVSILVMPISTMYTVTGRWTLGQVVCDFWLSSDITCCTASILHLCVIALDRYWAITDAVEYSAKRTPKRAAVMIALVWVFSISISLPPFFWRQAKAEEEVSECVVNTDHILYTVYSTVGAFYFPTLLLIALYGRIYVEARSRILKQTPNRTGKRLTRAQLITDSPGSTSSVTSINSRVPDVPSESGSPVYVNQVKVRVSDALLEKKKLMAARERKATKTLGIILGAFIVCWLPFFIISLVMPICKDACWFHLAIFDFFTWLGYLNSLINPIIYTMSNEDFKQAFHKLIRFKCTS", "experiment": "pKi of test compounds, 5HT1B receptor", "assay_type": "binding"}}, "data": [{"smiles": "Cc1nc2n(c(=O)c1CCN1CCC(c3noc4cc(F)ccc34)CC1)CCCC2O", "note": "(stereo not drawn) [9-hydroxyrisperidone]", "values": [{"measurement": "pharmacological activity and intensity relative to parent risperidone", "setting": "[1]", "result": "of the same pharmacological activity and intensity as parent risperidone"}]}, {"smiles": "Clc1ccc(N2CCN(Cc3c[nH]c4ncccc34)CC2)cc1", "note": "[L-745,870]", "values": [{"measurement": "antipsychotic efficacy", "setting": "[2]", "result": "ineffective as an antipsychotic"}]}, {"smiles": "NC(=O)C1(N2CCCCC2)CCN(CCCC(=O)c2ccc(F)cc2)CC1", "note": "[Pipamperone, 1′-[3-(p-Fluorobenzoyl)propyl]-[1,4′-bipiperidine]-4′-carboxamide]", "values": [{"measurement": "pKi value towards other Dopamine receptors", "setting": "[3]", "result": "less than 8"}, {"measurement": "Ki", "setting": "[4]", "result": "> 1000", "unit": "nM"}, {"measurement": "Ki", "setting": "[5]", "result": "> 1000", "unit": "nM"}, {"measurement": "Ki", "setting": "[6]", "result": "100 to 1000", "unit": "nM"}, {"measurement": "Ki", "setting": "[7]", "result": "> 1000", "unit": "nM"}, {"measurement": "Ki", "setting": "[8]", "result": "> 1000", "unit": "nM"}, {"measurement": "Ki", "setting": "[9]", "result": "1 to 10", "unit": "nM"}, {"measurement": "Ki", "setting": "[10]", "result": "100 to 1000", "unit": "nM"}, {"measurement": "pKi value towards other 5HT receptors", "setting": "[11]", "result": "less than 8"}, {"measurement": "Ki", "setting": "[12]", "result": "> 1000", "unit": "nM"}, {"measurement": "Ki", "setting": "[13]", "result": "100 to 1000", "unit": "nM"}, {"measurement": "Ki", "setting": "[14]", "result": "100 to 1000", "unit": "nM"}, {"measurement": "Ki", "setting": "[15]", "result": "100 to 1000", "unit": "nM"}]}]}
